Columns and labels:
[1] = biological target: T1, human PR (progesterone receptor) (Homo sapiens, UniProt P06401); experiment: Steroid nuclear hormone receptor binding assay, PR; details: [3H]-methyltrienolone, HEK293 lysate overexpressing human PR
T1 construct: expressed in transfected cells; host or cells: HEK293 (293-PR lysate)
T1 sequence (P06401 1-933): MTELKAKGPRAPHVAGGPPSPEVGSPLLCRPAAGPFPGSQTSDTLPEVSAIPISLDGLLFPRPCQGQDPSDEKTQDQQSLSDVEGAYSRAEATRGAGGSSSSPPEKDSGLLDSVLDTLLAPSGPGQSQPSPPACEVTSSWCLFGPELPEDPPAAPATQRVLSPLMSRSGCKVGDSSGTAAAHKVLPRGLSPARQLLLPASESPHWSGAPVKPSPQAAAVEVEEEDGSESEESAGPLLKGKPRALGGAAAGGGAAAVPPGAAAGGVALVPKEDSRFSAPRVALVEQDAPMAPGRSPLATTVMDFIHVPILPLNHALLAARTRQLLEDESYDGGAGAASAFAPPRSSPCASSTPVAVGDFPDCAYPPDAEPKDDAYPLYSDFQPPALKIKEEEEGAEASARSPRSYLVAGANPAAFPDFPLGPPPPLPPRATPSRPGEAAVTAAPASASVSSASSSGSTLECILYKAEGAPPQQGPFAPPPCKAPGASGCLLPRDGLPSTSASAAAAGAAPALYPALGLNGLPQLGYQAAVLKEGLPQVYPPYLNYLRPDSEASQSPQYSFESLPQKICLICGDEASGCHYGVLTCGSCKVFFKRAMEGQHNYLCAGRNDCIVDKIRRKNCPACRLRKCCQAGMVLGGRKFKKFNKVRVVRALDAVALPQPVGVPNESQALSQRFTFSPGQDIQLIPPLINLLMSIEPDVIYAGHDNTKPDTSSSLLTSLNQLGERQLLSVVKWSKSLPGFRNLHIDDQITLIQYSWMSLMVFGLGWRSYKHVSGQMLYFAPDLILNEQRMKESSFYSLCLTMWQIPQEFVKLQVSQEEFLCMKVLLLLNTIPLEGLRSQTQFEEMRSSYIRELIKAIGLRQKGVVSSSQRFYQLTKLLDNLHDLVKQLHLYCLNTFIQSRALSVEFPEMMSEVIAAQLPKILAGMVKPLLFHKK
Experimental: Cell lysates from human embryonic kidney HEK293 cells overexpressing human MR (mineralocorticoid receptor), GR (glucocorticoid receptor), AR (androgen receptor), or PR (progesterone receptor) are used for receptor-ligand competition binding assays to determine Ki values.
Briefly, steroid receptor competition binding assays are run in a buffer containing 20 mM HEPES buffer (pH=7.6), 0.2 mM EDTA, 75 mM NaCl, 1.5 mM MgCl2, 20% glycerol, 20 mM sodium molybdate, 0.2 mM DTT (dithiothreitol), 20 μg/mL aprotinin and 20 μg/mL leupeptin (assay buffer). Typically, steroid receptor binding assays include radio-labeled ligands, such as 0.25 nM [^3H]-aldosterone for MR binding, 0.7 nM [^3H]-dexamethasone for GR binding, 0.36 nM [^3H]-methyltrienolone for AR binding, and 0.29 nM [^3H]-methyltrienolone for PR binding, and either 20 μg 293-MR lysate, 20 μg 293-GR lysate, 22 μg 293-AR lysate, or 40 μg 293-PR lysate per well. Assays are typically run in 96-well format. Competing test compounds are added at various concentrations ranging from about 0.01 nM to 10 μM. Non-specific binding is determined in the presence of 500 nM aldosterone for MR binding, 500 nM dexamethasone for GR binding, or 500 nM methyltrienolone for AR and PR binding. […] After an incubation of 2 hours, plates are read in a Wallac Microbeta counter. […]

[2] = biological target: T2, human progesterone receptor (PR) (Homo sapiens, UniProt P06401); experiment: Nuclear hormone receptor panel screen (luciferase reporter, HEK293), PR; format: cell-based
T2 construct: expressed in transfected cells; host or cells: HEK293
T2 sequence (P06401 1-933): T1 sequence (P06401 1-933)
From the text: Aldosterone exerts it physiological effects through interaction with the mineralocorticoid receptor. Following cytoplasmic binding of aldosterone to MR, the ligand receptor complex translocates to the cell nucleus where it binds to hormone response elements on DNA to initiate expression of target genes. […] The solvents, reagents, and ligands employed in the functional assay are readily available from commercial sources, or can be prepared by one of ordinary skill in the art.
Human embryonic kidney HEK293 cells are transfected with steroid hormone receptor and reporter gene plasmids using a suitable transfection reagent such as Fugene™. […] After 24 hours incubation with test compounds, cells are lysed and luciferase activity is determined using standard techniques.
Data are fitted to a four parameter-fit logistic curve to determine EC50 values. […] IC50 values are determined similarly using antagonist mode assay data. In the antagonist mode, percent inhibitions are determined by comparing test compound activity in the presence of low concentration of agonist (0.08 nM aldosterone for MR, 0.25 nM dexamethasone for GR, 0.66 nM of methyltrienolone for AR, and 0.08 nM of promegestone for PR) to the response produced by the same low concentration of agonist in the absence of test compound.

Ki [1]: ~478 nM
EC50 ([2]; agonist mode): > 10000 nM
IC50 ([2]; antagonist mode, 0.08 nM promegestone): ~924 nM
Structure (SMILES): O=c1[nH]c2cc(/C=C3\c4ccccc4COc4cc(F)ccc43)ccc2n1[C@@H]1C[C@@H]2COCCN2C1 [Compound (I), 5-((E)-(3-fluorodibenzo[b,e]oxepin-11(6H)-ylidene)methyl)-1-((7R,8aR)-hexahydro-1H-pyrrolo[2,1-c][1,4]oxazin-7-yl)-1H-benzo[d]imidazol-2(3H)-one]

From US8658638B2, “Mineralocorticoid receptor antagonist and methods of use” (priority 2009, dated 2014)
